Results taken from US10144746B2 (GLOBAL BLOOD THERAPEUTICS, INC., priority 2015, dated 2018).
Structures can show the parent of a compound that is named as a salt.

Target: Human plasma kallikrein (Homo sapiens (Human), UniProt P03952)
Assay: In vitro plasma kallikrein inhibition assay (chromogenic substrate D-Pro-Phe-Arg-pNa, absorbance at 405 nm, IC50 determination)
Format: biochemical
Settings: not given

Human plasma kallikrein, sequence (P03952 391-638): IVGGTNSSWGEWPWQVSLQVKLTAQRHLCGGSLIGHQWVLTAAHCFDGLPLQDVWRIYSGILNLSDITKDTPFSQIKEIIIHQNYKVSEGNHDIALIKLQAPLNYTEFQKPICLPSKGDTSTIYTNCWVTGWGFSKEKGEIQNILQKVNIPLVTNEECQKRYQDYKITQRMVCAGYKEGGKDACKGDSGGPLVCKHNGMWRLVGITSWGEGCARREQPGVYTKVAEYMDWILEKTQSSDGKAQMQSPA
Human plasma kallikrein, sequence (P03952 20-390 partner): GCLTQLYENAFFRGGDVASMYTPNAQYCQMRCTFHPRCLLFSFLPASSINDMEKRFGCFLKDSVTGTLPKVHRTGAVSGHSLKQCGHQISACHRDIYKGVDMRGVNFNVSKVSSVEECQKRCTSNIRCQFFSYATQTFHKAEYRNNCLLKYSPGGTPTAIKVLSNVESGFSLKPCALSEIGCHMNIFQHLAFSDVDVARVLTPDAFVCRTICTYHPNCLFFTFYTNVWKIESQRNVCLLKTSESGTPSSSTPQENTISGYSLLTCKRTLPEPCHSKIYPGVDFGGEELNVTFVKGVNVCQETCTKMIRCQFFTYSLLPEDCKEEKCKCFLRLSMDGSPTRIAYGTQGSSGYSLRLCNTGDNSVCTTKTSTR

| Compound | KLKB1 pIC50 |
| --- | --- |
| CON=C(N)c1cc(F)c(CNC(=O)c2ccc3c(c2)[C@@H]2O[C@H]3c3ccc(-c4ccc(F)cc4F)cc32)c(F)c1 [Example 255, (1R,8S)-N-({2,6-difluoro-4-[N′-methoxy-carbamimidoyl]phenyl}methyl)-12-(2,4-difluorophenyl)-15-oxatetracyclo[6.6.1.0^2,^7.0^9,1^4]-pentadeca-2,4,6,9,11,13-hexaene-4-carboxamide] | 6.18 |
| (±)-N-[(6-amino-2,4- dimethylpyridin-3-yl)methyl]- 12-(4-fluorophenyl)-1,8- dimethyl-15- oxatetracyclo[6.6.1.0^2,^7.0^9,1^4] pentadeca-2,4,6,9,11,13- hexaene-4-carboxamide and (±)-N-[(6-amino-2,4- dimethylpyridin-3-yl)methyl]- 11-(4-fluorophenyl)-1,8- dimethyl-15-oxatetracyclo [6.6.1.0^2,^7.0^9,1^4]pentadeca- 2,4,6,9,11,13-hexaene-4- carboxamide [Example 339] | 4 |
| (±)-N-[(6-amino-4-ethoxy- 2-methylpyridin-3-yl)methyl]-12- (2,4-difluorophenyl)-16-oxo-15- azatetracyclo[6.6.1.0^2,^7.0^9,1^4] hexadeca-2,4,6,9,11,13- hexaene-4-carboxamide and (±)-N-[(6-amino-4-ethoxy-2- methylpyridin-3-yl)methyl]- 11-(2,4-difluorophenyl)-16-oxo- 15-azatetracyclo[6.6.1.0^2,^7.0^9,1^4] hexadeca-2,4,6,9,11,13- hexaene-4-carboxamide [Example 163] | 6.11 |
| CON=C(N)c1cc(F)c(CNC(=O)c2ccc3c(c2)[C@@H]2O[C@H]3c3ccc(-c4nccs4)cc32)c(F)c1 [Example 274] | 5.86 |
| (±)-N-[(6-amino-2,4- dimethylpyridin-3-yl) methyl]-12-(2,4- difluorophenyl)tetracyclo- [6.6.1.0^2,^7.0^9,1^4]hexadeca- 2,4,6,9,11,13-hexaene-4- carboxamide and (±)-N-[(6- amino-2,4-dimethylpyridin- 3-yl)methyl]-11-(2,4- difluorophenyl)tetracyclo [6.6.1.0^2,^7.0^9,1^4]hexadeca- 2,4,6,9,11,13-hexaene-4- carboxamide [Example 261] | 6.32 |
| CON=C(N)c1ccc(CNC(=O)c2ccc3c(c2)[C@@H]2O[C@H]3c3ccc(-c4ccc(F)cc4)cc32)cc1 [Example 241, (1R,8S)-12-(4-fluorophenyl)-N-{[4-(N′-methoxy-carbamimidoyl)pheny]methyl}-15-oxatetracyclo-[6.6.1.0^2,^7.0^9,1^4]pentadeca-2,4,6,9,11,13-hexaene-4-carboxamide] | 4 |
| Cc1cc(N)nc(C)c1CNC(=O)c1ccc2c(c1)C1OC2c2ccc(Br)cc21 (centres unmarked) | 6 |
| (±)-N-[(6-amino-2,4- dimethylpyridin-3-yl)-methyl]- 12-(2,4-difluorophenyl)-15- methyl-15-azatetracyclo [6.6.1.0^2,^7.0^9,1^4]pentadeca- 2,4,6,9,11,13- hexaene-4-carboxamide and (±)-N-[(6-amino-2,4- dimethylpyridin-3-yl)methyl]- 11-(2,4-difluorophenyl)-15- methyl-15-azatetra-cyclo [6.6.1.0^2,^7.0^9,1^4]pentadeca- 2,4,6,9,11,13-hexaene-4- carboxamide [Example 115] | 4 |

Same assay, conditions: read-out: KLKB1 pIC50 (converted)

| Compound | IC50 [nM] |
| --- | --- |
| Cc1cc(N)nc(C)c1CNC(=O)c1ccc2c(c1)C1OC2c2cc3c(cc21)OCCO3 (racemic) [Example 342, (±)-N-[(6-amino-2,4-dimethylpyridin-3-yl)methyl]-5,8,19-trioxapentacyclo-[10.6.1.0^2,11.0^4,^9.0^13,1^8]nonadeca-2,4(9),10,13,15,17-hexaene-15-carboxamide] | 550 |
| CC12OC(C)(c3cc(C(=O)NCc4ccc(C(=N)N)cc4)ccc31)c1cc(-c3ccc(F)cc3)ccc12 (racemic) [Example 344, N-[(4-carbamimidoylphenyl)methyl]-12-(4-fluorophenyl)-1,8-dimethyl-15-oxatetracyclo [6.6.1.0^2,^7.0^9,1^4]pentadeca-2,4,6,9,11,13-hexaene-4-carboxamide] | 427 |
| Cc1ccncc1-c1ccc2c(c1)[C@H]1O[C@@H]2c2ccc(C(=O)NCc3c(C)cc(N)nc3C)cc21 (single isomer, unassigned) [Example 215] | 79.4 |
| Cc1cc(N)nc(C)c1CNC(=O)c1ccc2c(c1)C1OC2c2ccc(-c3c(F)cc(F)cc3Cl)cc21 (racemic) [Example 146, (±)-N-[(6-amino-2,4-dimethylpyridin-3-yl)-methyl]-12-(2-chloro-4,6-difluorophenyl)-15-oxatetracyclo[6.6.1.0^2,^7.0^9,1^4] pentadeca-2,4,6,9,11,13-hexaene-4-carboxamide] | 148 |
| Cc1cc(N)nc(C)c1CNC(=O)c1ccc2c(c1)[C@@H]1O[C@H]2c2ccc(C(=O)N3CC4CCC(C3)O4)cc21 (single isomer, unassigned) [Example 193] | 1580 |
| Cc1cc(N)nc(C)c1CNC(=O)c1ccc2c(c1)[C@@H]1O[C@H]2c2ccc(-c3ccc(Cl)cc3F)cc21 (single isomer, unassigned) [Example 174] | 46.8 |
| Cc1cc(N)nc(C)c1CNC(=O)c1ccc2c(c1)C1OC2c2ccc(Oc3ccc(F)c(F)c3)cc21 (racemic) [Example 122, (±)-N-[(6-amino-2,4-dimethylpyridin-3-yl)-methyl]-12-(3,4-difluorophenoxy)-15-oxatetracyclo[6.6.1.0^2,^7.0^9,1^4] pentadeca-2,4,6,9,11,13-hexaene-4-carboxamide] | 148 |
| Nc1nccc2ccc(CNC(=O)c3ccc4c(c3)C3OC4c4ccc(-c5ccc(F)cc5F)cc43)cc12 (racemic) [Example 154, (±)-N-[(1-aminoisoquinolin-7-yl)methyl]-12-(2,4-difluorophenyl)-15-oxatetracyclo [6.6.1.0^2,^7.0^9,1^4]-pentadeca-2,4,6,9,11,13-hexaene-4-carboxamide] | 3720 |
| Nc1n[nH]c2cc(CNC(=O)c3ccc4c(c3)[C@@H]3O[C@H]4c4ccc(-c5ccc(F)cc5F)cc43)ccc12 (single isomer, unassigned) [Example 207] | 4900 |
| COc1ccc(CNC(=O)c2ccc3c(c2)[C@@H]2O[C@H]3c3ccc(-c4ccccc4F)cc32)cc1 (single isomer, unassigned) [Example 253] | 100000 |
| Cc1cc(N)nc(C)c1CNC(=O)c1ccc2c(c1)[C@@H]1O[C@H]2c2ccc(C(=O)N(C)c3ccc(F)cc3)cc21 (single isomer, unassigned) [Example 196] | 4680 |
| Cc1nc(N)cc(C(C)C)c1CNC(=O)c1ccc2c(c1)[C@@H]1O[C@H]2c2ccc(-c3c(F)ccc[n+]3[O-])cc21 (single isomer, unassigned) [Example 289] | 123 |
| Cc1cccc(Oc2ccc3c(c2)C2OC3c3ccc(C(=O)NCc4c(C)cc(N)nc4C)cc32)c1 (racemic) [Example 159, (±)-N-[(6-amino-2,4-dimethylpyridin-3-yl)-methyl]-12-(3-methylphenoxy)-15-oxatetracyclo[6.6.1.0^2,^7.0^9,1^4] pentadeca-2,4,6,9,11,13-hexaene-4-carboxamide] | 1860 |
| Cc1cc(N)nc(C)c1CNC(=O)c1ccc2c(c1)C1OC2c2ccc(-c3ccc(C(F)(F)F)c(F)c3F)cc21 (racemic) [Example 119, (±)-N-[(6-amino-2,4-dimethylpyridin-3-yl)-methyl]-12-[2,3-difluoro-4-(trifluoromethyl)-phenyl]-15-oxatetracyclo[6.6.1.0^2,^7.0^9,1^4] pentadeca-2,4,6,9,11,13-hexaene-4-carboxamide] | 427 |
| Nc1cc(NC(=O)c2ccc3c(c2)[C@@H]2O[C@H]3c3ccc(-c4ccc(F)cc4F)cc32)ccn1 (single isomer, unassigned) [Example 347] | 100000 |
| CCOC(=O)N=C(N)c1cc(F)c(CNC(=O)c2ccc3c(c2)[C@@H]2O[C@H]3c3ccc(-c4ccc(F)cc4F)cc32)c(F)c1 (single isomer, unassigned) [Example 269] | 1230 |
| N=C(N)c1ccc(CNC(=O)c2ccc3c(c2)[C@@H]2O[C@H]3c3ccc(C4CC4)cc32)c(F)c1 (single isomer, unassigned) [Example 302] | 1 |
| COc1cc(N)nc(C)c1CNC(=O)c1ccc2c(c1)C1OC2c2ccc(-c3c(C)cc(F)cc3F)cc21 (racemic) [Example 150, (±)-N-[(6-amino-4-methoxy-2-methylpyridin-3-yl)methyl]-12-(2,4-difluoro-6-methylphenyl)-15-oxatetracyclo[6.6.1.0^2,^7.0^9,1^4] pentadeca-2,4,6,9,11,13-hexaene-4-carboxamide] | 34.7 |
| CCOc1cc(N)nc(C)c1CNC(=O)c1ccc2c(c1)C1OC2c2ccc(-c3c(C)cc(F)cc3F)cc21 (racemic) [Example 151, (±)-N-[(6-amino-4-ethoxy-2-methylpyridin-3-yl)-methyl]-12-(2,4-difluoro-6-methylphenyl)-15-oxatetracyclo[6.6.1.0^2,^7.0^9,1^4] pentadeca-2,4,6,9,11,13-hexaene-4-carboxamide] | 195 |
| Cc1cc(N)nc(C)c1CNC(=O)c1ccc2c(c1)[C@@H]1O[C@H]2c2ccc(N(c3cccc(F)c3)C(C)C)cc21 (single isomer, unassigned) [Example 249] | 93.3 |
| Cc1cc(N)nc(C)c1CNC(=O)c1ccc2c(c1)C1OC2c2ccc(-c3ncccc3F)cc21 (racemic) [Example 110, trifluoroacetate salt] | 162 |
| Cc1cc(N)nc(C)c1CNC(=O)c1ccc2c(c1)[C@@H]1O[C@H]2c2ccc(C(=O)c3ccccc3)cc21 (single isomer, unassigned) [Example 220] | 12 |
| N=C(N)c1cc(F)c(CNC(=O)c2ccc3c(c2)[C@@H]2O[C@H]3c3ccc(C4CC4)cc32)c(F)c1 (single isomer, unassigned) [Example 280] | 0.759 |
| Cc1nc(N)cc(Cl)c1CNC(=O)c1ccc2c(c1)[C@@H]1O[C@H]2c2ccc(-c3ccc(F)cc3F)cc21 (single isomer, unassigned) [Example 192] | 977 |
